# Experiments:
# [1] = FDO stability under the diet making conditions; assay type: physicochemical; details: mixed with ground Purina Mouse Chow, 70° C. for 3 hours under vacuum; ethanol extract, HPLC and UV absorption
# Protocol: (§1) Three key parameters were measured prior to starting the study: (a) FDO stability under the diet making conditions (70° C. for 3 hours under vacuum), (b) FDO stability to stomach pH (approximately pH 1), and (c) FDO absorbed intact into the blood stream of the mouse. The following were the outcomes: • (a) The FDO was mixed with ground Purina Mouse Chow® and heated to 70° C. for 3 hours under vacuum; the FDO was then extracted from the chow with ethanol and assayed by HPLC and by UV absorption spectrum. […]
# [2] = FDO absorbed intact into the blood stream of the mouse; assay type: in vivo; details: Skh mice fed chow containing 0.01% 14C-FDO for 14 days; blood analyzed by HPLC
# Protocol: as §1
# [3] = FDO stability to stomach pH; assay type: physicochemical; details: 2:1:1 ethanol:propylene glycol:water at pH 1 (HCl); HPLC and UV absorption
# Protocol: as §1
# [4] = FDO content of FDO-containing diets during storage over the study; assay type: physicochemical; details: diets stored at 4° C., sampled at 3 month intervals over approximately two years; UV absorption
# Protocol: (§2) The FDO-containing and control diets were prepared by Teklad (Madison, Wis.) by addition of FDO to standard Purina Mouse Chow®. Diets were stored at 4° C. in sealed containers until used. The levels of FDO in the diets were 0%, 0.01%, and 0.1%.
# At 3 month intervals throughout the study, samples of the FDO-containing Purina Mouse Chow® were ground and extracted with ethanol; the ethanol was then analyzed for FDO content by UV absorption (obtaining the absorption spectrum versus the FDO standard and then determining level of FDO at the peak absorption).
# [5] = test system: female albino Skh:HR-1 hairless mice; test: Effect of dietary FDO on mouse average life span (survival); assay type: in vivo; details: for Mean survival: control 553 days
# Protocol: Forty eight (48) female albino Skh:HR-1 hairless mice were obtained from Charles River Laboratories (Portage, Mich.). At the start of the study, the mice were approximately 20 weeks old. The mice were housed four to a standard plastic cage and given feed and water ad libitum. Sixteen (16) mice were placed on each of the three test diets described below.
# The 2-Furildioxime (FDO) was obtained from Aldrich Chemical Co. (Milwaukee, Wis.).
# as §2
# Throughout the study, mouse weights, food consumption, and date of death were recorded.
# [6] = 0.01% and 0.1% FDO diets vs. 0% control diet
compound,measurement,setting,value
"ON=C(C(=NO)c1ccco1)c1ccco1 [FDO, 2-furildioxime]",loss of FDO under diet making conditions,[1],no detectable loss
same,FDO in blood after dietary administration,[2],Intact FDO was detected
same,loss of FDO at stomach pH,[3],no detectable loss
same,loss of FDO from the diets,[4],no detectable loss
same,% Increase in Survival Time,"[5]; 0.01% FDO diet vs. control diet, p = 0.05",14%
same,Mean survival,"[5]; 0.01% FDO diet, p = 0.05 vs. control",632 days
same,mouse body weights,[5]; [6],not different
same,mouse food consumption,[5]; [6],not different
same,% Increase in Survival Time,"[5]; 0.1% FDO diet vs. control diet, p = 0.02",20%
same,Mean survival,"[5]; 0.1% FDO diet, p = 0.02 vs. control",664 days
same,death from all causes,[5]; FDO-fed mice,delayed to a later date
same,differences in the causes of death among the diet groups,"[5]; autopsy, 0.01% and 0.1% FDO diets vs. control",not any differences
same,life span relative to the control diet,"[5]; both FDO diets (0.01% and 0.1%), statistical analysis",significantly increased
same,appearance or behavioral differences,"[5]; daily observation, 0.01% and 0.1% FDO diets vs. control",No differences

# Source: patent US20050020672A1, “Methods of extending mammalian life span via iron chelating compounds that reduce free radical damage in mammals” (priority 1994, published 2005)
